Laboratory results as given in patent US8193172B2, “Methods for the treatment of major depressive disorder using glucocorticoid receptor antagonists” (Pop Test Cortisol LLC, priority 2001, dated 2012).
Read-outs that look alike come from different tables or passages of the source.

Assays:
[1] = tested on: Major Depressive Disorder patients; test: Double blind, 4 week, paroxetine controlled study of Org 34517 in depressed patients (HAMD-21, afternoon cortisol test); type: in vivo; details: daily dose 150-300 mg, oral, FIG. 1
Protocol: A double blind, 4 week, paroxetine controlled study of Org 34517 in depressed patients was carried out. Paroxetine is a selective serotonin re-uptake inhibitor which is recognized as an effective antidepressant for major depression.
Patients were randomly allocated to one of three treatment groups. Group I patients (50 patients) received 2 capsules with 75 mg of Org 34517 and one placebo (total daily dose 150 mg) for the first 2 weeks and 2 capsules with 75 mg Org 34517 and 1 capsule with 150 mg (total daily dose 300 mg) the next 2 weeks; Group II patients (46 patients) received 3 capsules with 150 mg Org 34517 (total daily dose 450 mg) in the first 2 weeks and 4 capsules of Org 34517 (total daily dose 600 mg) in the next 2 weeks; Group III patients (44 patients) received 2 capsules with 10 mg paroxetine and one placebo capsule (total daily dose 20 mg) for the first 2 weeks, followed by 2 capsules of 10 mg and one capsule of 20 mg paroxetine (total daily dose 40 mg) in the next 2 weeks. Medication was administered orally in the morning. Efficacy assessment was done on days 4, 7, 10, 14, 21, 28 and 35 by using the 21-item HAMD scale.
The cortisol levels were determined using the afternoon cortisol test (ACT) as described by Halbreich et al. [J. Clin. Endocrinol. Metab. (1982) 54 (6), 1262].

[2] = tested on: psychosis associated with psychotic major depression; details: cited from earlier work
[3] = tested on: psychosis associated with psychotic major depression; details: mifepristone 8-12 mg/kg/day over 4 days; cited from earlier work

SMILES | p of correlation between HAMD-21 change and cortisol (ACT) change ([1]; HAMD-21 change scored at day 14, cortisol change at 28 days) | clinical improvement (HAMD decrease) in relation to cortisol change [1] | change in Brief Psychiatric Rating Scale ([2]; daily dose 50 mg) [%] | change in Brief Psychiatric Rating Scale ([2]; daily dose 600 mg) [%] | change in Brief Psychiatric Rating Scale ([2]; daily dose 1200 mg) [%] | effect in the treatment of psychosis associated with psychotic major depression [3]
CC#C[C@]1(O)CC[C@H]2[C@@H]3CCC4=CC(=O)CCC4=C3[C@@H](c3ccc4c(c3)OCO4)C[C@@]21C [Org 34517, (11β,17β)-11-(1,3-benzodioxol-5-yl)-17-hydroxy-17-(1-propynyl)estra-4,9-dien-3-one] | 0.02 | most prominent clinical improvement (HAMD decrease) is seen in patients were cortisol is not increased | – | – | – | –
CC#C[C@]1(O)CC[C@H]2[C@@H]3CCC4=CC(=O)CCC4=C3[C@@H](c3ccc(N(C)C)cc3)C[C@@]21C [mifepristone, 17β-hydroxy-11β-(4-dimethylaminophenyl)-17α-(1-propynyl)estra-4,9-dien-3-one] | – | – | 33 | 40 | 52 | effective
